{
  "source": "paper PMC12072186",
  "about": "“A Novel Small Molecule Enhances Stable Dopamine Delivery to the Brain in Models of Parkinson’s Disease” (International Journal of Molecular Sciences, 2025)",
  "key": {"[1]": {"test_system": "DA and its metabolite HVA", "experiment": "DA and HVA ELISA on serum and brain extracts of TgA53T mice", "type": "in vivo, mouse", "details": "50 mg/kg, 12–13-month-old TgA53T mice, vs DMSO"}, "TgA53T mice": {"test_system": "TgA53T mice", "experiment": "Rotarod test in TgA53T mice", "type": "in vivo, mouse"}, "[2]": {"test_system": "MPTP-treated C57BL/6 mice", "experiment": "Rotarod test in MPTP-treated mice", "type": "in vivo, mouse", "details": "MPTP 25 mg/kg i.p. day 1–5; treatment day 1–13; vs MPTP vehicle control", "procedure": "(§1) MPTP was injected to male C57BL/6 mice for 5 consecutive days (Figure 4A) to destroy DA neurons, and then the mice were treated with Pegasus alone or Pegasus + Benserazide compared to L-dopa alone or L-Dopa + Benserazide.\n(§2) From day 1 to day 5, MPTP was administered to all the groups except Naive at a dose of 25 mg/kg, i.p., QD. Treatment with Pegasus alone (50 mg/kg, i.p., BID), a combination of Pegasus 50 mg/kg, BID + Benserazide 10 mg/kg, QD, or a combination of L-Dopa 10 mg/kg, QD + Benserazide 10 mg/kg, QD or standalone L-Dopa 10 mg/kg, QD, started on day 1 and continued until day 13. On day 13, after the first dose of Pegasus, 4 animals/time point from each group were sacrificed at 0.5, 1, 3, 6, and 12 h, and the blood and brains were collected.\nThe mice were placed on an accelerating Rotarod (Columbus Instruments, Columbus, OH, USA) equipped with individual timers for each mouse. […] The mice were trained for 3 consecutive days before the final measurement."}, "[3]": {"experiment": "Pharmacokinetics after single i.p. injection, serum and brain (UHPLC-MS/MS)", "type": "in vivo, mouse", "details": "for Kp: intraperitoneal; for half-life / AUC(0-inf): ip"}, "[4]": {"test_system": "MPTP-treated C57BL/6 mice", "experiment": "Grip strength test in MPTP-treated mice", "type": "in vivo, mouse", "details": "MPTP 25 mg/kg i.p. day 1–5; treatment day 1–13; vs MPTP vehicle control", "procedure": "as §1, §2\nThe maximal muscle/grip strength of forelimbs was measured using a strength meter."}, "[5]": {"experiment": "Plasma binding by equilibrium dialysis", "type": "in vitro ADME", "details": "mouse, rat, dog, and human plasma", "source_text": "Many of the metabolites were formed after the amide cleavage of the parent, Pegasus, into the tetracycline or the DA scaffold and further biotransformation of those scaffolds. […] Both M8 and M11 are abundantly detected in the brain and the blood in rats and the relative abundance of brain–plasma is 318 and 131%, respectively. […] Furthermore, Pegasus is […] bound to mouse, rat, dog, and human plasma (Avg. 91–98%) using the equilibrium dialysis method."}},
  "note": "Like-named read-outs stand apart in the source and are kept apart here.",
  "data": [
    {"smiles": "C[C@H]1c2ccc(NC(=O)CCC(=O)NCCc3ccc(O)c(O)c3)c(O)c2C(=O)C2=C(O)[C@]3(O)C(=O)C(C(N)=O)=C(O)CC3[C@@H](O)C21", "note": "(some centres unmarked) [Pegasus]", "values": [
      {"measurement": "Concentration of DA in the brain", "setting": "[1]", "value": "significantly increases"},
      {"measurement": "Concentration of DA in the serum", "setting": "[1]", "value": "significantly increases"},
      {"measurement": "Concentration of HVA in the brain", "setting": "[1]", "value": "significantly increases"},
      {"measurement": "Concentration of HVA in the serum", "setting": "[1]", "value": "though not HVA in the serum"},
      {"measurement": "Duration of improved Rotarod motor performance", "setting": "TgA53T mice; 50 mg/kg for 3 weeks, TgA53T mice", "value": "up to 6.5 h"},
      {"measurement": "Rotarod motor performance", "setting": "TgA53T mice; 1–2 h post-injection, 50 mg/kg i.p. daily, 12–13 months old TgA53T mice, vs DMSO", "value": "significantly improves motor performance"},
      {"measurement": "Rotarod motor behavior", "setting": "TgA53T mice; 2–3 h, 3–4 h and up to 5–6.5 h post-injection, 50 mg/kg i.p. daily, vs DMSO", "value": "continues to improve motor behavior"},
      {"measurement": "Latency to fall (Rotarod)", "setting": "[2]", "value": "significantly increased latency to fall"},
      {"measurement": "Kp", "setting": "[3]; C57BL/6 (mouse), Sprague Dawley (rat), mouse and rat brain, read-out: Share of Pegasus detected in the brain", "value": "< 0.01"},
      {"measurement": "half-life", "setting": "[3]; both sexes, C57BL/6, mouse, brain, 50 mg/kg, 50 mg/kg ip, read-out: Brain T1/2 (elimination) (converted)", "value": 226, "unit": "min"},
      {"measurement": "half-life", "setting": "[3]; both sexes, C57BL/6, mouse, brain, 100 mg/kg, 100 mg/kg ip, read-out: Brain T1/2 (elimination) (converted)", "value": 109, "unit": "min"},
      {"measurement": "AUC(0-inf)", "setting": "[3]; both sexes, C57BL/6, mouse, brain, 100 mg/kg, across 50 and 100 mg/kg i.p., read-out: AUC0-inf in the brain", "value": "86.6 to 223", "unit": "ng·h/mL"},
      {"measurement": "half-life", "setting": "[3]; both sexes, C57BL/6, mouse, brain, 100 mg/kg, across 50 and 100 mg/kg i.p., read-out: Elimination half time T1/2 in the brain", "value": "109 to 226", "unit": "min"},
      {"measurement": "Kp", "setting": "[3]; both sexes, C57BL/6, mouse, brain/serum, 50 mg/kg ip, read-out: Ratio of Brain/Serum (%)", "value": 0.007},
      {"measurement": "Kp", "setting": "[3]; both sexes, C57BL/6, mouse, brain/serum, 100 mg/kg ip, read-out: Ratio of Brain/Serum (%)", "value": 0.006},
      {"measurement": "Kp", "setting": "[3]; both sexes, C57BL/6, mouse, brain/serum, across 50 and 100 mg/kg i.p., read-out: Percentage ratio of brain/serum", "value": "0.006 to 0.007"},
      {"measurement": "Tmax", "setting": "[3]; both sexes, C57BL/6, mouse, brain, 50 mg/kg ip, read-out: Brain Tmax", "value": 2, "unit": "h"},
      {"measurement": "Tmax", "setting": "[3]; both sexes, C57BL/6, mouse, brain, 100 mg/kg ip, read-out: Brain Tmax", "value": 1.5, "unit": "h"},
      {"measurement": "AUC(0-inf)", "setting": "[3]; both sexes, C57BL/6, mouse, serum, 50 mg/kg, 50 mg/kg ip, read-out: Serum AUC (0-inf)", "value": 17200, "unit": "ng·h/mL"},
      {"measurement": "half-life", "setting": "[3]; both sexes, C57BL/6, mouse, serum, 50 mg/kg, 50 mg/kg ip, read-out: Serum T1/2 (elimination) (converted)", "value": 247, "unit": "min"},
      {"measurement": "AUC(0-inf)", "setting": "[3]; both sexes, C57BL/6, mouse, serum, 100 mg/kg, 100 mg/kg ip, read-out: Serum AUC (0-inf)", "value": 49100, "unit": "ng·h/mL"},
      {"measurement": "half-life", "setting": "[3]; both sexes, C57BL/6, mouse, serum, 100 mg/kg, 100 mg/kg ip, read-out: Serum T1/2 (elimination) (converted)", "value": 284, "unit": "min"},
      {"measurement": "AUC(0-inf)", "setting": "[3]; both sexes, C57BL/6, mouse, serum, 100 mg/kg, across 50 and 100 mg/kg i.p., read-out: AUC0-inf in the serum", "value": "17200 to 49100", "unit": "ng·h/mL"},
      {"measurement": "half-life", "setting": "[3]; both sexes, C57BL/6, mouse, serum, 100 mg/kg, across 50 and 100 mg/kg i.p., read-out: Elimination half time T1/2 in the serum", "value": "247 to 284", "unit": "min"},
      {"measurement": "Cmax", "setting": "[3]; both sexes, C57BL/6, mouse, serum, 50 mg/kg ip, read-out: Serum Cmax", "value": 7.97, "unit": "µM"},
      {"measurement": "Cmax", "setting": "[3]; both sexes, C57BL/6, mouse, serum, 50 mg/kg ip, read-out: Serum Cmax (ng/ml)", "value": 5190, "unit": "ng/mL"},
      {"measurement": "Tmax", "setting": "[3]; both sexes, C57BL/6, mouse, serum, 50 mg/kg ip, read-out: Serum Tmax", "value": 2, "unit": "h"},
      {"measurement": "Cmax", "setting": "[3]; both sexes, C57BL/6, mouse, serum, 100 mg/kg ip, read-out: Serum Cmax", "value": 32.7, "unit": "µM"},
      {"measurement": "Cmax", "setting": "[3]; both sexes, C57BL/6, mouse, serum, 100 mg/kg ip, read-out: Serum Cmax (ng/ml)", "value": 21300, "unit": "ng/mL"},
      {"measurement": "Tmax", "setting": "[3]; both sexes, C57BL/6, mouse, serum, 100 mg/kg ip, read-out: Serum Tmax", "value": 2.5, "unit": "h"},
      {"measurement": "Forelimb grip strength", "setting": "[4]", "value": "significantly reversed back to normal levels"},
      {"measurement": "Plasma binding (Avg.)", "setting": "[5]", "value": "91–98%"}
    ]}
  ]
}
